# Results from paper PMC10663510 (Scientific Reports, 2023).
# T1: MSMEG-3765 (TetR-like repressor) (Mycolicibacterium (Mycobacterium) smegmatis mc2 155?), ORF:4079dac7
# T1 sequence: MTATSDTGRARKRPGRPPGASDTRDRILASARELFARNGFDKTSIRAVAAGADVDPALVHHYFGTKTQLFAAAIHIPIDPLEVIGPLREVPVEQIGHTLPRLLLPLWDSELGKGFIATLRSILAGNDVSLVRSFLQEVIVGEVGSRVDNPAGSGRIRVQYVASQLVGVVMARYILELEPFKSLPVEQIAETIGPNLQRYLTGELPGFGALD
# B1: TetR-like MSMEG-3765 repressor (natural protein)
# chain: T1 sequence
# notes: also called MSMEG-3765 TetR recombinant protein; TetR-like MSMEG-3765 protein
# Legend:
# [1] = biological target: T2, MSMEG-3765 (TetR-like repressor) (Mycolicibacterium smegmatis, UniProt A0QYS0); experiment: EMSA, release of […] bp operator DNA; assay type: binding; conditions: 0.2 pmol DNA, 4 pmol protein, 400 or 4000 pmol drug in 20 ul; 20 mM HEPES pH 8.0, 75 mM NaCl, 10 mM MgCl2, 30 °C
# T2 construct: gene MSMEG_3765; homodimer; 211 residues per chain in model
# [2] = system: T1, MSMEG-3765 (TetR-like repressor) (Mycolicibacterium (Mycobacterium) smegmatis mc2 155?), ORF:4079dac7; experiment: EMSA; conditions: 20 mM HEPES pH 8.0, 75 mM NaCl, 10 mM MgCl2, 5% glycerol; 20 ul, 30 C 10 min; native 8% PAGE at 4 C
# [3] = biological target: the molecule itself; experiment: circular dichroism (spectrum and thermal unfolding) compared with data back-calculated from monomer and dimer models; MSMEG-3765 in 20 mM Tris HCl, 500 mM NaCl, pH 8; CD spectra 200-260 nm at 5-85 °C; melting temperature and spectrum compared with predictions (SCooP, PDBMD2CD) from predicted monomeric and dimeric structures
Molecule,"EMSA, release of 133 bp operator DNA [1]",further results
O=C(O)c1cn(C2CC2)c2cc(N3CCNCC3)c(F)cc2c1=O [ciprofloxacin],rifampicin or ciprofloxacin are able to directly interfear with the binding of the MSMEG-3765 TetR,
CO[C@H]1/C=C/O[C@@]2(C)Oc3c(C)c(O)c4c(O)c(c(/C=N/N5CCN(C)CC5)c(O)c4c3C2=O)NC(=O)/C(C)=C\C=C\[C@H](C)[C@H](O)[C@@H](C)[C@@H](O)[C@@H](C)[C@H](OC(C)=O)[C@@H]1C [rifampicin],rifampicin or ciprofloxacin are able to directly interfear with the binding of the MSMEG-3765 TetR,
CTGCTGGAGTCCGCCGCCTGAGCCAGGCGTCGCCGACGCCGAAATGTGTCGACGCATCGTCTTCCCACCGGACGACGGCAGGCCTAGAATTCATTGCATGATGACTTCATCGCGCGATGAATTGTCAGCGACGGGGCCCG (double strand) [133 bp MSMEG_3762 upstream operator fragment],,binding [2]: binds
B1,,binding result [3]: binds
